Test results taken from CN111004186A, “一种小分子荧光探针及其制备方法与应用” (Wenzhou Medical University, priority 2019, dated 2020).

Experiments:
[1] = UV-vis absorption spectra of the probe on addition of ClO-; conditions: aqueous solution, probe 10 μM and 5 μM, ClO- added
[2] = Fluorescence titration of the probe with ClO-; conditions: excitation 440 nm
[3] = Fluorescence selectivity of the probe for ClO- over other ions/species
[4] = tested on: MRC-5 cells (人胚肺细胞(MRC-5)); assay: Fluorescence bioimaging of ClO- in MRC-5 cells; format: cell-based, human
zebrafish (斑马鱼) = assay: Fluorescence bioimaging of ClO- in zebrafish; format: in vivo

SMILES: O=C1NC(=S)NC(=O)C1=Cc1ccc2cc(O)ccc2c1 [小分子探针]
- absorption band at 440 nm on addition of ClO- [1]: 逐渐减少
- new absorption peak after addition of ClO- [1]: 515 nm
- maximum emission ([2]; probe 5 μM in water with ClO-): 535 nm
- fluorescence intensity as a function of ClO- concentration ([2]; probe 5 μM in water, 400-700 nm): 随ClO-浓度增加而增强
- fluorescence change with anions/species other than ClO- ([3]; probe 2 μM in EtOH-H2O (v/v=1:10), 1.0 eq SO3 2-, NO, 1O2, ·OH, PBO·, TBHP, DBTP, Cys, GSH, H2O2): 没有产生明显变化
- fluorescence intensity after addition of ClO- ([3]; probe 2 μM in EtOH-H2O (v/v=1:10), ClO- 1.0 eq): 明显
- selectivity for ClO- ([3]; probe 2 μM in EtOH-H2O (v/v=1:10), anions 1.0 eq): 高选择性
- fluorescence change with other ions ([3]; probe mixed with other ions (not hypochlorite)): 荧光基本上不发生变化
- fluorescence intensity on reaction with hypochlorite ion ([3]; probe with hypochlorite ion): 荧光强度变强
- fluorescence signal in cells ([4]; MRC-5 cells incubated with free probe, without added ClO-): 观察到可见荧光信号
- fluorescence intensity in the red channel ([4]; MRC-5 cells incubated with probe 20 min, then ClO- 6.0 μM, observed immediately): 显着荧光强度
- red fluorescence in head and abdomen (zebrafish (斑马鱼); 5-day-old zebrafish pretreated with probe, washed three times, then ClO- 6.0 μM): 显着的红色荧光
- red fluorescence in the abdomen (zebrafish (斑马鱼); 5-day-old zebrafish, free probe 2.0 μM, 20 min, without added ClO-): 弱而可见的 红色荧光
- tissue penetration ability (zebrafish (斑马鱼); zebrafish): 高组织穿透能力
